The text below walks through data of patent US7183260B2, “C-terminal modified oxamyl dipeptides as inhibitors of the ICE/ced-3 family of cysteine proteases” (Idun Pharmaceuticals, Inc., priority 1998, dated 2007).

pKi: −log10 of the molar value.

What all share (assay type): biochemical
Holding throughout (conditions): continuous assay 60 min, reaction initiated by adding enzyme to substrate-inhibitor mixture

The target in one assay is T1, MCH-2 (Homo sapiens, UniProt P55212).
T1 sequence (P55212 24-179 limits assumed): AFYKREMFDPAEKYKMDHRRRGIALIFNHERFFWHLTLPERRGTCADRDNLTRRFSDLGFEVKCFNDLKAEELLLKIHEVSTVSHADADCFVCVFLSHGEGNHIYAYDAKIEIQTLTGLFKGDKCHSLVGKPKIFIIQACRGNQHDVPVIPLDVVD
T1 sequence (P55212 194-293 limits assumed): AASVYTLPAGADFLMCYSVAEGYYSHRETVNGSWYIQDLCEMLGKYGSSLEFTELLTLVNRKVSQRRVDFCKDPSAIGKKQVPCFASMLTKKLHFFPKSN
The assay is described as follows: Dissociation constant Ki and irreversible rate constant k3 for irreversible inhibitors (Mch2).

The target of another assay is T2, CPP32 (Homo sapiens, UniProt P42574).
T2 sequence (P42574 29-175 limits assumed): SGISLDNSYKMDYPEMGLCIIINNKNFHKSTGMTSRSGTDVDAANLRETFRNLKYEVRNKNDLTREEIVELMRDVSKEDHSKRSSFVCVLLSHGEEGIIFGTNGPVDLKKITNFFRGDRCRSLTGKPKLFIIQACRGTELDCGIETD
T2 sequence (P42574 176-277 limits assumed): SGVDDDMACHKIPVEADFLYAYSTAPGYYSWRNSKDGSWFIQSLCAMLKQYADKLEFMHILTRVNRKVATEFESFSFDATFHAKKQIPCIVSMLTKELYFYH
The assay is described as follows: Dissociation constant Ki and irreversible rate constant k3 for irreversible inhibitors (CPP32).

The target of another assay is T3, mICE (Mus musculus, UniProt P29452).
T3 sequence (P29452 123-296 limits assumed): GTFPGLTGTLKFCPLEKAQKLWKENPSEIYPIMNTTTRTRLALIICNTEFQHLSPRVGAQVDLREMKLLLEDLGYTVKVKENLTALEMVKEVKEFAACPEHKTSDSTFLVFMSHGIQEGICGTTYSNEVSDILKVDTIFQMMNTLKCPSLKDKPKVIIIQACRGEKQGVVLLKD
T3 sequence (P29452 315-402 limits assumed): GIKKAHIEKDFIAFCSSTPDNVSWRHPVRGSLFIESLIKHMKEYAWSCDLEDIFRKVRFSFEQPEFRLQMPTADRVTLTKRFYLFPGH
The assay is described as follows: Dissociation constant Ki and irreversible rate constant k3 for irreversible inhibitors (ICE).

The target of a further assay is MCH-5 (Homo sapiens, UniProt Q14790). The assay is described as follows: Dissociation constant Ki and irreversible rate constant k3 for irreversible inhibitors (Mch5).
Chain of MCH-5 (Q14790 217-374 limits assumed, species assumed): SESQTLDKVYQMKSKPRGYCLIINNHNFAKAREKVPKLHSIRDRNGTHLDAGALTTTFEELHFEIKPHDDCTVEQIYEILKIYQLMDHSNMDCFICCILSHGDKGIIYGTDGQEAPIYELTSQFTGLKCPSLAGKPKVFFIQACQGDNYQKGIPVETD
Chain of MCH-5 (Q14790 385-479 limits assumed, species assumed): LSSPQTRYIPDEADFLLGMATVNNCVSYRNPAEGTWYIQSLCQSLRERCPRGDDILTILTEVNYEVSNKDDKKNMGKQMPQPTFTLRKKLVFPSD

As for `CC(C)[C@H](NC(=O)C(=O)Nc1cccc2ccccc12)C(=O)NC(CC(=O)O)C(=O)CF` (mixture of isomers) [Example 3, (3RS)-3-[N-(N′-(1-NAPHTHYL)OXAMYL)VALINYL]AMINO-5-FLUORO-4-OXOPEINTANOIC ACID], at MCH-2, the pKi is 7.77 and the “MCH-2 k3/Ki” value is 199,000 moles^−1 seconds^−1. Moreover, at CPP32, the “CPP32 k3/Ki” value is 413,000 moles^−1 seconds^−1 and the negative logarithm of the Ki (pKi) was 7.49. Moreover, on mICE, the pKi is 8.74 and the “mICE k3/Ki” value was 2,170,000 moles^−1 seconds^−1. Further, at MCH-5, the pKi is 8.89 and the “MCH-5 k3/Ki” value is recorded as 1,160,000 moles^−1 seconds^−1.
On to `CC(C)[C@H](NC(=O)C(=O)Nc1cccc2ccccc12)C(=O)N[C@@H](CC(=O)O)C(=O)COC(=O)c1c(Cl)cccc1Cl` [Example 4], for which the pKi on MCH-2 was 8.05; on CPP32, 7.85; at mICE it was 8.21; at MCH-5, 8.40.
For `CC(C)[C@H](NC(=O)C(=O)Nc1cccc2ccccc12)C(=O)N[C@@H](CC(=O)O)C(=O)COc1c(F)cccc1F` [Example 5] the same measures were 7.60, 7.39, 8.13 and 8.30.
In the case of `CC(C)[C@H](NC(=O)C(=O)Nc1cccc2ccccc12)C(=O)N[C@@H](CC(=O)O)C(=O)COc1c(F)cc(F)cc1F` [Example 6], the pKi at MCH-2 is 7.38; on CPP32 it was 7.41; at mICE, 8.06; on MCH-5, 8.28.
In the case of `CC(C)[C@H](NC(=O)C(=O)Nc1cccc2ccccc12)C(=O)N[C@@H](CC(=O)O)C(=O)COc1c(F)c(F)cc(F)c1F` [Example 7], the pKi was 7.80 on MCH-2, 7.34 at CPP32, 8.24 on mICE and 8.43 on MCH-5.
Regarding `Cc1cc(OCC(=O)[C@H](CC(=O)O)NC(=O)[C@@H](NC(=O)C(=O)Nc2cccc3ccccc23)C(C)C)cc(=O)o1` [Example 8], the pKi on MCH-2 is 6.60; on CPP32, 7.59; at MCH-5 it was 7.54.
Consider `CC(C)[C@H](NC(=O)C(=O)Nc1cccc2ccccc12)C(=O)N[C@@H](CC(=O)O)C(=O)COc1c(-c2ccccc2)oc2ccccc2c1=O` [Example 9], for which the pKi on MCH-2 was 6.47. For the same compound, at CPP32, the “CPP32 k3/Ki” value was 43,600 moles^−1 seconds^−1 and the pKi is 7.23. For the same compound, on mICE, the pKi was 6.89 and the “mICE k3/Ki” value is listed as 82,100 moles^−1 seconds^−1. On MCH-5, the pKi is 6.34 and the “MCH-5 k3/Ki” value was determined as 0 mol⁻¹ s⁻¹.
On to `CC(C)[C@H](NC(=O)C(=O)Nc1cccc2ccccc12)C(=O)N[C@@H](CC(=O)O)C(=O)COP(C)(=O)c1ccccc1` (stereo partly shown) [Example 10], for which the pKi at MCH-2 is 7.96; on CPP32, 7.72; at mICE, 8.19; on MCH-5, 8.27.
The like results for `CC(C)[C@H](NC(=O)C(=O)Nc1cccc2ccccc12)C(=O)N[C@@H](CC(=O)O)C(=O)COP(=O)(c1ccccc1)c1ccccc1` [Example 11] were, in that order, 7.96, 7.60, 8.30 and 8.89.
The like results for `CC(C)[C@H](NC(=O)C(=O)Nc1cccc2ccccc12)C(=O)N[C@@H](CC(=O)O)C(=O)COc1ccnc(C(F)(F)F)n1` [Example 12] were, in that order, 7.02, 7.19, 8.14 and 7.92.
The like results for `COC(=O)c1cc(OCC(=O)[C@H](CC(=O)O)NC(=O)[C@@H](NC(=O)C(=O)Nc2cccc3ccccc23)C(C)C)no1` [Example 13] were, in that order, 7.02, 7.17, 7.62 and 7.64.
As to `CC(C)[C@H](NC(=O)C(=O)Nc1cccc2ccccc12)C(=O)N[C@@H](CC(=O)O)C(=O)COc1ccc(O)cc1` [Example 15], at MCH-2, the pKi is 7.43 and the “MCH-2 k3/Ki” value is 69,100 moles^−1 seconds^−1. For the same compound, on CPP32, the “CPP32 k3/Ki” value is 286,000 moles^−1 seconds^−1 and the pKi is 7.38. Further, on mICE, the negative logarithm of the Ki (pKi) was 8.21 and the “mICE k3/Ki” value is recorded as 1,840,000 moles^−1 seconds^−1. For the same compound, on MCH-5, the pKi was 8.24 and the “MCH-5 k3/Ki” value is listed as 625,000 moles^−1 seconds^−1.
In the case of `C/C=C/OC(=O)Oc1ccc(OCC(=O)[C@H](CC(=O)O)NC(=O)[C@@H](NC(=O)C(=O)Nc2cccc3ccccc23)C(C)C)cc1` [Example 16], the pKi at MCH-2 is 7.37; at mICE, 8.02.
For `CC(C)[C@H](NC(=O)C(=O)Nc1cccc2ccccc12)C(=O)N[C@@H](CC(=O)O)C(=O)COc1cccc2ccccc12` [Example 18], at MCH-2, the pKi is 7.70 and the “MCH-2 k3/Ki” value is 83,700 moles^−1 seconds^−1. Also, on CPP32, the “CPP32 k3/Ki” value is listed as 180,000 moles^−1 seconds^−1 and the pKi is 7.34. Besides, at mICE, the negative-log Ki (pKi) is 7.48 and the “mICE k3/Ki” value was 254,000 moles^−1 seconds^−1. Moreover, on MCH-5, the negative logarithm of the Ki (pKi) was 8.00 and the “MCH-5 k3/Ki” value was 177,000 moles^−1 seconds^−1.
`C[C@H](NC(=O)C(=O)Nc1ccccc1-c1ccccc1)C(=O)N[C@@H](CC(=O)O)C(=O)COc1ccccc1F` [Example 28]: on MCH-2, the pKi was 7.38 and the “MCH-2 k3/Ki” value is listed as 35,000 moles^−1 seconds^−1. At CPP32, the “CPP32 k3/Ki” value is 55,600 moles^−1 seconds^−1 and the pKi was 6.96. At mICE, the pKi is 7.34 and the “mICE k3/Ki” value is 167,000 moles^−1 seconds^−1. Besides, at MCH-5, the pKi is 8.24 and the “MCH-5 k3/Ki” value is on record as 37,800 moles^−1 seconds^−1.
For the compound `C[C@H](NC(=O)C(=O)Nc1ccccc1-c1ccccc1)C(=O)N[C@@H](CC(=O)O)C(=O)COC(=O)c1c(Cl)cccc1Cl` [Example 29], on MCH-2, the pKi was 8.05 and the “MCH-2 k3/Ki” value is on record as 219,000 moles^−1 seconds^−1. Besides, at CPP32, the “CPP32 k3/Ki” value was 388,000 moles^−1 seconds^−1 and the pKi is 7.82. On mICE, the pKi was 7.42 and the “mICE k3/Ki” value was 259,000 moles^−1 seconds^−1. In addition, on MCH-5, the pKi was 7.77 and the “MCH-5 k3/Ki” value is given as 125,000 moles^−1 seconds^−1.
In the case of `C[C@H](NC(=O)C(=O)Nc1ccccc1-c1ccccc1)C(=O)N[C@@H](CC(=O)O)C(=O)COP(=O)(c1ccccc1)c1ccccc1` [Example 30], on MCH-2, the pKi was 7.60 and the “MCH-2 k3/Ki” value is on record as 317,000 moles^−1 seconds^−1. In addition, on CPP32, the “CPP32 k3/Ki” value is 243,000 moles^−1 seconds^−1 and the pKi was 7.38. For the same compound, at mICE, the pKi was 7.66 and the “mICE k3/Ki” value is 345,000 moles^−1 seconds^−1. Further, at MCH-5, the pKi was 7.62 and the “MCH-5 k3/Ki” value is recorded as 207,000 moles^−1 seconds^−1.
Regarding `C[C@H](NC(=O)C(=O)Nc1ccccc1C(C)(C)C)C(=O)N[C@@H](CC(=O)O)C(=O)COc1ccccc1F` [Example 31], at MCH-2, the pKi was 7.15 and the “MCH-2 k3/Ki” value was 54,900 moles^−1 seconds^−1. Also, at CPP32, the “CPP32 k3/Ki” value is recorded as 67,700 moles^−1 seconds^−1 and the pKi was 7.22. Also, at mICE, the pKi was 7.51 and the “mICE k3/Ki” value was 442,000 moles^−1 seconds^−1. Further, at MCH-5, the negative-log Ki (pKi) was 7.35 and the “MCH-5 k3/Ki” value is 119,000 moles^−1 seconds^−1.
As for `C[C@H](NC(=O)C(=O)Nc1ccccc1C(C)(C)C)C(=O)N[C@@H](CC(=O)O)C(=O)COP(=O)(c1ccccc1)c1ccccc1` [Example 32], at MCH-2, the pKi was 7.80 and the “MCH-2 k3/Ki” value is given as 275,000 moles^−1 seconds^−1. At CPP32, the “CPP32 k3/Ki” value is 327,000 moles^−1 seconds^−1 and the pKi is 7.47. Moreover, at mICE, the pKi was 7.01 and the “mICE k3/Ki” value is 159,000 moles^−1 seconds^−1. On MCH-5, the pKi is 8.00 and the “MCH-5 k3/Ki” value is given as 282,000 moles^−1 seconds^−1.
As to `C[C@H](NC(=O)C(=O)NCc1cccc2ccccc12)C(=O)N[C@@H](CC(=O)O)C(=O)COc1c(F)c(F)cc(F)c1F` [Example 33], on MCH-2, the pKi was 7.80 and the “MCH-2 k3/Ki” value is on record as 335,000 moles^−1 seconds^−1. On CPP32, the “CPP32 k3/Ki” value was 158,000 moles^−1 seconds^−1 and the pKi is 7.21. Besides, at mICE, the pKi was 8.25 and the “mICE k3/Ki” value is 2,590,000 moles^−1 seconds^−1. In addition, on MCH-5, the pKi is 8.01 and the “MCH-5 k3/Ki” value is 1,260,000 moles^−1 seconds^−1.
Regarding `C[C@H](NC(=O)C(=O)NCc1cccc2ccccc12)C(=O)N[C@@H](CC(=O)O)C(=O)COC(=O)c1c(Cl)cccc1Cl` [Example 34], at MCH-2, the pKi was 7.96 and the “MCH-2 k3/Ki” value is given as 214,000 moles^−1 seconds^−1. Also, on CPP32, the “CPP32 k3/Ki” value was 187,000 moles^−1 seconds^−1 and the pKi was 7.37. Further, on mICE, the pKi is 8.00 and the “mICE k3/Ki” value is listed as 1,160,000 moles^−1 seconds^−1. Besides, at MCH-5, the pKi is 8.38 and the “MCH-5 k3/Ki” value is given as 936,000 moles^−1 seconds^−1.

As a reminder, the pKi is the Ki on a negative log10 scale, so that one unit is a factor of ten.
